Experimental data as given in ChEMBL document CHEMBL1201862, “PubChem BioAssay data set” (2004).
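Values below derive from 48-hour exposures of cells grown in 96-well plates, with endpoints linearly interpolated between the two concentrations bracketing the appropriate inhibition level. Abbreviation: GI50, concentration required for 50% inhibition of growth.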 Calls of active or inactive are those of the source. No stated cut-off is given here; in the data, active = GI50 up to about 1.1 µM and inactive = higher.

Legend:
Assay in all cases: NCI-60 cell line screen, 48 h
[1] = system: A498
[2] = system: ACHN
[3] = system: BT-549
[4] = system: COLO 205
[5] = system: HL-60
[6] = system: HT-29
[7] = system: IGROV-1
[8] = system: LOX IMVI
[9] = system: MDA-MB-435
[10] = system: Malme-3M
[11] = system: NCI-H226
[12] = system: NCI/ADR-RES
[13] = system: OVCAR-4
[14] = system: OVCAR-5
[15] = system: SK-MEL-28
[16] = system: SN12C
[17] = system: SNB-19
[18] = system: SNB-75
[19] = system: SW-620
[20] = system: TK-10

Measured: GI50

CSc1ccc(/C=C/C(=O)c2nc3ccccc3[nH]2)cc1
inactive: [1] 13.6 µM | [2] 18.9 µM | [3] 14.8 µM | [4] 18.1 µM | [5] 12.1 µM | [6] 15.7 µM | [7] 30.3 µM | [8] 14.5 µM | [9] 6.22 µM | [10] 44.7 µM | [11] 13.6 µM | [12] 20.1 µM | [13] 14.1 µM | [14] 25.2 µM | [15] 31.6 µM | [16] 29.2 µM | [17] 16.1 µM | [18] 13.2 µM | [19] 9.29 µM | [20] 3.58 µM

Nc1ccc2c(c1)CN1C(=O)c3ccccc3C1=N2 [DANIQUIDONE]
inactive: [1] 43.1 µM | [2] 14.7 µM | [3] > 93.3 µM | [4] 23.3 µM | [5] 8.3 µM | [6] 69.3 µM | [7] 34.2 µM | [8] 35.7 µM | [9] 29.2 µM | [10] 67 µM | [11] 45.9 µM | [12] 66.1 µM | [13] 91.8 µM | [14] 64.9 µM | [15] > 119 µM | [16] 33.3 µM | [17] 29 µM | [18] 30.2 µM | [19] 24.5 µM | [20] 36.4 µM

CCOC(=O)C(NC(=O)c1cccc(Cl)c1)(N1CCN(c2cc3c(cc2F)c(=O)c(C(=O)O)cn3CC)CC1)C(F)(F)F (stereo not given)
inactive: [1] 20.7 µM | [2] 15.7 µM | [3] 19.4 µM | [4] 18.1 µM | [5] 4.47 µM | [6] 17.6 µM | [7] 18.3 µM | [8] 17.7 µM | [9] 14.5 µM | [10] 18.2 µM | [11] 18.2 µM | [12] 39.8 µM | [13] 18.6 µM | [14] 17.4 µM | [15] 17 µM | [16] 24.4 µM | [17] 29.4 µM | [18] 21.4 µM | [19] 12.9 µM | [20] 21.3 µM

O=C(O)c1ccccc1/C=C1\Cc2ccccc2C1=O
inactive: [1] > 100 µM | [2] > 100 µM | [3] 19.3 µM | [4] 48.4 µM | [5] > 100 µM | [6] 38.2 µM | [7] > 100 µM | [8] 91 µM | [9] > 100 µM | [10] > 100 µM | [11] > 100 µM | [12] > 100 µM | [13] > 100 µM | [14] > 100 µM | [15] > 100 µM | [16] > 100 µM | [17] > 100 µM | [18] > 100 µM | [19] > 100 µM | [20] > 100 µM

OCCNC1c2cc(Cl)ccc2-c2c(Cl)cc(Cl)cc21 (stereo not given)
inactive: [1] 48 µM | [2] 25.9 µM | [3] > 100 µM | [4] 54.8 µM | [5] 25.6 µM | [6] 31.5 µM | [7] 13.2 µM | [8] 34.5 µM | [9] 35.6 µM | [10] > 100 µM | [11] > 100 µM | [12] 45.9 µM | [13] 32.1 µM | [14] 42.2 µM | [15] 92.3 µM | [16] 25.5 µM | [17] 39.4 µM | [18] 37.9 µM | [19] 30.3 µM | [20] 39.7 µM
